Experimental data from patent US10183022B2, “Pharmaceutical composition for treating ulcerative colitis” (EA Pharma Co., Ltd., priority 2014, dated 2019).
Where “and” joins values, the source holds several entries; their conditions need not be identical. Equal entries are not always repeated.

Tested on: ulcerative colitis patients in an active stage
Experiment: Clinical study, 960 mg orally 3 times a day for 8 weeks: Mayo score, partial Mayo score, response rate, remission rate
Format: in vivo, human
Set-up: key to Mayo score, Mean / Mayo score, Minimum / Mayo score, Maximum / Mayo score, Upper quartile / Mayo score, Median / Mayo score, Lower quartile: Mayo score = total of 4 subscores (stool, bloody stool, mucosa, global); key to Mayo score, difference in mean between Example 1 and Comparative Example 1: Mayo score points (total of 4 subscores)
Experimental: A tablet comprising 120 mg of the compound of the formula (1) was coated with a film. Thus, a film-coated tablet was prepared (compound of Example 1).
The compound of Example 1 or the compound of Comparative Example 1 was orally administered after meals 3 times a day. The number of the given tablets was 8 per administration (i.e., the amount of the compound (1) of Example 1 administered was 960 mg per administration). The administration period was 8 weeks. The compounds were administered until the timing after the breakfast on the day before the assessment day at Week 8.
As the subjects, 102 cases (Comparative Example 1: 51 cases, Example 1: 51 cases) were analyzed for assessment items to be described later.
The investigators or sub-investigators assessed subscores (“stool frequency,” “bloody stool,” “mucosal finding,” and “physician's global assessment”) of the Mayo score according to (1) to (4) below. A Mayo score was a total value of four subscore items of “stool frequency,” “bloody stool,” “mucosal finding,” and “physician's global assessment.” Meanwhile, a partial Mayo score was a total value of three subscore items of the Mayo score excluding “mucosal finding.” Note that, for the Mayo score and the partial Mayo score at Week 0, scores obtained at the time of the eligibility determination were used.
A proportion of subjects satisfying the following conditions (a) and (b) (response rate): • (a) the Mayo score was reduced by 30% or more and by 3 points or more in comparison with that at Week 0; and • (b) the subscore for bloody stool was reduced by 1 point or more in comparison with that at Week 0 or was 1 point or less.
Regarding the response rate (proportion of response cases) (Week 8), Example 1 was compared with Comparative Example 1 by setting a logistic regression model using the following adjusting factors as covariates to conduct a superiority test.
• 1. either subjects on whom a 5-ASA preparation (including a SASP preparation) or a corticosteroid preparation has an insufficient effect or who are intolerant to a 5-ASA preparation (including a SASP preparation) or a corticosteroid preparation; and • 2. the Mayo scores (6 points or more but 7 points or less, 8 points or more but 10 points or less) on the eligibility verification day. (1) Main Analysis
Using the response rate at Week 8 as a primary endpoint, a main effect model was set as the main analysis.
A remission rate is a proportion of subjects each having a Mayo score of 2 points or less with the individual subscores of 1 point or less.

With `COC(=O)[C@H](Cc1ccc(-n2c(=O)c3cc(N(C)C)ccc3n(C)c2=O)cc1)NC(=O)c1c(Cl)cccc1Cl` [Example 1, methyl(2S)-2-(2,6-dichlorobenzamide)-3-{4-[6-(dimethylamino)-1-methyl-2,4-dioxo-1,4-dihydroquinazolin-3(2H)-yl]phenyl}propanoate] the “Response rate in comparison with Comparative Example (placebo)” value (960 mg orally 3 times a day for 8 weeks) was “significantly improved”, the Response rate (3 months or more but less than 6 months after remission induction therapy started (6/10 cases)) was 60.0% and the Response rate (6 months or more after remission induction therapy started (5/11 cases)) was 45.5%. For the same compound, the Response rate (Mayo score 6 points or more but 7 points or less (15/20 cases)) was 75.0%, the Response rate (Mayo score 8 points or more but 10 points or less (17/31 cases)) was 54.8% and the “Mayo score, Lower quartile” value (Week 0) was 7.0. For the same compound, the “Mayo score, Maximum” value (Week 0) was 10, the “Mayo score, Mean” value (Week 0) was 7.8±1.2 and 7.8 and the “Mayo score, Median” value (Week 0) was 8.0. The “Mayo score, Minimum” value (Week 0) was 6, the “Mayo score, Upper quartile” value (Week 0) was 9.0 and the “Partial Mayo score, Lower quartile” value (Week 0) was 5.0. The “Partial Mayo score, Maximum” value (Week 0) was 8, the “Partial Mayo score, Mean” value (Week 0) was 5.7±1.1 and 5.7 and the “Partial Mayo score, Median” value (Week 0) was 6.0. The “Partial Mayo score, Minimum” value (Week 0) was 4, the “Partial Mayo score, Upper quartile” value (Week 0) was 6.0 and the “Partial Mayo score, Lower quartile” value (Week 2) was 3.0. For the same compound, the “Partial Mayo score, Maximum” value (Week 2) was 8, the “Partial Mayo score, Mean” value (Week 2) was 4.4±1.7 and 4.4 and the “Partial Mayo score, Median” value (Week 2) was 5.0. For the same compound, the “Partial Mayo score, Minimum” value (Week 2) was 0, the “Partial Mayo score, Upper quartile” value (Week 2) was 6.0 and the “Partial Mayo score, difference in mean between Example 1 and Comparative Example 1” value (shortened to “Partial Mayo score, difference”) (Week 2) was −0.55. For the same compound, the “Partial Mayo score, Lower quartile” value (Week 4) was 2.0, the “Partial Mayo score, Maximum” value (Week 4) was 8 and the “Partial Mayo score, Mean” value (Week 4) was 3.5±2.0 and 3.5. For the same compound, the “Partial Mayo score, Median” value (Week 4) was 3.0, the “Partial Mayo score, Minimum” value (Week 4) was 0 and the “Partial Mayo score, Upper quartile” value (Week 4) was 5.0. The “Partial Mayo score, difference” value (Week 4) was −1.16, the “Difference in remission rates, Example 1 vs Comparative Example 1 (placebo)” value (Week 8) was 19.6% and the “Difference in response rates, Example 1 vs Comparative Example 1 (placebo)” value (Week 8) was 37.3%. The “Mayo score, Lower quartile” value (Week 8) was 2.0, the “Mayo score, Maximum” value (Week 8) was 9 and the “Mayo score, Mean” value (Week 8) was 4.0±2.4 and 4.0. For the same compound, the “Mayo score, Median” value (Week 8) was 4.0, the “Mayo score, Minimum” value (Week 8) was 0 and the “Mayo score, Upper quartile” value (Week 8) was 5.0. The “Mayo score, difference in mean between Example 1 and Comparative Example 1” value (Week 8) was −2.14, the “Partial Mayo score, Lower quartile” value (Week 8) was 2.0 and the “Partial Mayo score, Maximum” value (Week 8) was 8. The “Partial Mayo score, Mean” value (Week 8) was 3.1±2.1 and 3.1, the “Partial Mayo score, Median” value (Week 8) was 3.0 and the “Partial Mayo score, Minimum” value (Week 8) was 0. For the same compound, the “Partial Mayo score, Upper quartile” value (Week 8) was 4.0, the “Partial Mayo score, difference” value (Week 8) was −1.63 and the Remission cases (Week 8, 51 cases analyzed) was 12. The Response cases (Week 8, 51 cases analyzed) was 32, the Remission rate (Week 8, all subjects) was 23.5% and the Response rate (Week 8, all subjects) was 62.7%. For the same compound, the “Estimate of odds ratio of Example 1 to Comparative Example 1 (placebo group), response rate” value (Week 8, logistic regression model) was 5.35, the Remission rate (body weight 50 kg or more and disease period less than 5 years (7/22 cases)) was 31.8% and the Response rate (body weight 50 kg or more and disease period less than 5 years (16/22 cases)) was 72.7%. The Response rate (body weight 50 kg or more but less than 60 kg (9/13 cases)) was 69.2%, the Response rate (body weight less than 50 kg (5/9 cases)) was 55.6% and the Response rate (disease for 1 year or more but less than 5 years (13/21 cases)) was 61.9%. It also gave a Response rate (disease for 5 years or more (13/24 cases)) of 54.2%, a Response rate (disease for less than 1 year (6/6 cases)) of 100.0% and a Response rate (disease occurring for the first time (3/5 cases)) of 60.0%. For the same compound, the Response rate (disease relapsing (29/46 cases)) was 63.0%, the Response rate (females (13/20 cases)) was 65.0% and the Response rate (left-sided colitis subjects (19/29 cases)) was 65.5%. The Response rate (less than 1 month after remission induction therapy started (8/13 cases)) was 61.5%, the Response rate (males (19/31 cases)) was 61.3% and the Response rate (most active site at S or Rs and disease period less than 5 years (9/10 cases)) was 90.0%. For the same compound, the Response rate (most active site of mucosal inflammation at Ra or Rb (15/28 cases)) was 53.6%, the Response rate (most active site of mucosal inflammation at S or Rs (17/23 cases)) was 73.9% and the Response rate (not receiving enema agent or suppository therapy in the active stage this time (21/34 cases)) was 61.8%. It also gave a Response rate (pancolitis subjects (13/22 cases)) of 59.1%, a Response rate (received enema agent or suppository therapy but terminated due to insufficient effect (11/17 cases)) of 64.7% and a Response rate (relapsing subjects, disease period less than 5 years (16/22 cases)) of 72.7%. The Response rate (relapsing subjects, stool frequency 6 times or less per day (25/32 cases)) was 78.1%, the Response rate (stool frequency 6 times or less per day and disease period less than 5 years (16/20 cases)) was 80.0% and the Response rate (stool frequency 6 times or less per day before administration (28/37 cases)) was 75.7%. The Response rate (stool frequency 7 times or more per day before administration (4/14 cases)) was 28.6%, the Response rate (subjects intolerant to a 5-ASA preparation (2/2 cases)) was 100.0% and the Response rate (subjects intolerant to a corticosteroid preparation (0/1 case)) was 0.0%. It also gave a Response rate (subjects on whom a 5-ASA preparation had an insufficient effect (28/46 cases)) of 60.9% and a Response rate (subjects on whom a corticosteroid preparation had an insufficient effect (2/2 cases)) of 100.0%.
